We go through three compounds from patent US20070117804A1, “Imidazopyrazines as protein kinase inhibitors” (Schering Corporation, priority 2005, published 2007).

One test concerns the target T1, His-CHK1 (Homo sapiens, UniProt O14757).
T1 sequence (O14757 1-265 limits assumed): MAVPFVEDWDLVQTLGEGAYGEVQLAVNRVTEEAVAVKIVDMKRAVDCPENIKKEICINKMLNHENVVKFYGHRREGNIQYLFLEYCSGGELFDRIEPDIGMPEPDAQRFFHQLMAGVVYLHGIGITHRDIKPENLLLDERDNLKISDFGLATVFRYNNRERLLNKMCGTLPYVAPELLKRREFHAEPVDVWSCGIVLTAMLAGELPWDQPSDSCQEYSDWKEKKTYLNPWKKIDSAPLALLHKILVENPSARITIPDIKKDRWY
In words: CHK1 SPA assay (recombinant His-CHK1, biotinylated CDC25C peptide, 33P-ATP).

The next test concerns the target T2, Cyclin E/CDK2 (Homo sapiens, UniProt P24941).
T2 construct: made in house; host or cells: SF9 insect cells, baculovirus co-infection
In words: CDK2 assay (Cyclin E/CDK2 in vitro kinase SPA assay, biotinylated Histone H1 peptide). It counts as biochemical. To be noted: read-out: CDK2 IC 50.

Consider `Cn1cc(-c2cnc3c(Nc4ccns4)nc(CCN)cn23)cn1`, for which the results for the IC50 at His-CHK1 and at Cyclin E/CDK2 were 0.017 µM and 0.55 µM, respectively.

With `CCN(CC)S(=O)(=O)c1sc(Nc2nc(C3=CCCNC3)cn3c(-c4cnn(C)c4)cnc23)cc1C`, at Cyclin E/CDK2, the IC50 is 8.28 µM. Take `Cc1cc(Nc2nc(C3=CCCNC3)cn3c(-c4cnn(C)c4)cnc23)sc1S(=O)(=O)N1CCOCC1`: the IC50 on Cyclin E/CDK2 was 6.95 µM.
